Measured values from patent publication US20220071955A1, “Methods of Treatment, Prevention and Diagnosis” (The Walter and Eliza Hall Institute of Medical Research, priority 2018, published 2022).
Entries after “also recorded” stand apart in the source; their conditions may differ.

Tests used:
TDP-43 mutant mice = assay: Rotarod test in TDP-43 mutant mice with established disease; type: in vivo, mouse; settings: H-151 (3.75 mM) i.p. every the other day for 4 weeks from 120 days of age
[1] = tested on: ALS patient iPSC-derived motor neurons; assay: LDH cytotoxicity assay and brightfield imaging of iPSC-derived motor neurons; type: cell-based, human; settings: H-151 1 μM, 4-week treatment
Source text: (§1) The established human iPSC lines used in this study included two controls (NCRM-1 and NCRM-5) from the National Institute of Neurological Disorders and Stroke, one control and one ALS patient from Alessandro Rosa, one ALS patient from RIKEN and one ALS patient (TALSTDP-47.10) from the Target ALS Foundation. All iPSCs were maintained on Matrigel (Corning, 354277)-coated 6-well plates in mTeSR1 (STEMCell Technologies, 85850) containing 1× Primocin (Invivogen, ant-pm-1) and passaged 1:6 using ReLeSR (STEMCell Technologies, 05872) with ROCK inhibitor Y-27632 (STEMCell Technologies, 72304) for the first 24 hours. The medium was replaced daily. Cells were cyropreserved in mTeSR1/10% DMSO.
(§2) Differentiation of iPSCs into ChAT^+ motor neurons was performed as described previously (Du et al., 2015) All medium and reagents from Gibco unless otherwise stated.
Human iPSCs were cultured in a chemically defined Neural Medium: DMEM/F12:Neurobasal (1:1) supplemented with 0.5×N2, 0.5×B27, 0.1 mM L-ascorbic acid (Sigma), 1× Glutamax and 1× Primocin (Invivogen) containing 3 μM CHIR99021 (STEMCell Technologies, 72054), 2 μM Dorsomorphin (STEMCell Technologies, 72102) and 2 μM SB431542 (STEMCell Technologies, 72234) for 6 days, and the medium was changed every other day. […]

[2] = tested on: human iPSC-derived motor neurons; assay: IFNB1 and TNF gene induction (qPCR) in human iPSC-derived motor neurons; type: cell-based; settings: motor neurons from healthy controls and ALS patients with TDP-43 mutations
Source text: (§3) Total RNA was isolated using the ISOLATE II RNA Mini Kit (Bioline) as per manufacturers' instructions and reverse transcribed using oligo(dT) nucleotides. Primers for cytokines, mitochondrial DNA and housekeeping genes were used as described previously (White et al., 2014; De Nardo et al., 2014). Others were designed using the Integrated DNA Technologies online tool as follows: hsIFNB1 FW, 5′-TGTCGCCTACTACCTGTTGTGC-3′ (SEQ ID NO:17); hsIFNB1 RV, 5′-AACTGCAACCTTTCGAAGCC-3′ (SEQ ID NO:18); mmIfnb1 FW: 5′-CCAGCTCCAAGAAAGGACGA-3′ (SEQ ID NO:19); mmIfnb1 RV: 5′-TGGATGGCAAAGGCAGTGTA-3′ (SEQ ID NO:20); mmIfna6 FW: 5′-GCTTTCCTGATGGTTTTGGTG-3′ (SEQ ID NO:21); mmIfna6 RV: 5′-AGGCTTTCTTGTTCCTGAGG-3′ (SEQ ID NO:22). Quantitative real-time PCR was performed using SYBR Green/ROX qPCR Master Mix (Thermo Scientific) on a ViiA 7 Real-Time PCR system (Thermo Scientific).
as §1, §2
Human iPSCs were cultured in a chemically defined Neural Medium: DMEM/F12:Neurobasal (1:1) supplemented with 0.5×N2, 0.5×B27, 0.1 mM L-ascorbic acid (Sigma), 1× Glutamax and 1× Primocin (Invivogen) containing 3 μM CHIR99021 (STEMCell Technologies, 72054), 2 μM Dorsomorphin (STEMCell Technologies, 72102) and 2 μM SB431542 (STEMCell Technologies, 72234) for 6 days, and the medium was changed every other day.
The NEPs were dissociated with ReLeSR and cultured 1:6 on Matrigel-coated plates in the Neural Medium containing 1 μM CHIR99021, 2 μM Dorsomorphin and 2 μM SB431542 for 6 days. Y-27632 was used for the first 24 hours. The medium was changed every other day. At this stage of differentiation, MNPs were either expanded in the Neural Medium containing 3 μM CHIR99021, 2 μM Dorsomorphin, 2 μM SB431542, 0.1 μM all-trans retinoic acid (Sigma, R2500), 0.5 μM Purmorphamine (STEMCell Technologies, 72204) and 0.5 mM Valporic Acid (STEMCell Technologies, 72292) prior to MN diffrenertiation or cryopreserved in DMEM/F12 containing 10% FBS and 10% DMSO.
The MNPs were dissociated with ReLeSR and cultured on Matrigel-coated plates in the Neural Medium containing 0.5 μM all-trans RA and 0.1 μM Pur for 6 days into premature MNX1^+ MN. Y-27632 was used for the first 24 hours and the medium was replaced every other day. Subsequently, cells were detached with Accutase (Merck Millipore, SCR005) to generate single cell suspension and matured in the medium supplemented with 0.1 μM Compound E (STEMCell Technologies, 73954) for 10 days into ChAT^+ MNs. The medium was replaced every other day. Cells were plated in Matrigel-coated 8-well chamber slides (iBidi, 80826) to confirm cellular markers of MNs, including MNX1 (Merck Millipore, ABN174) and ChAT (Merck Millipore, […]) along with βIII-Tubulin (Promega, clone 5G8, G7121) staining using an inverted SP8 confocal microscopy (Leica).

[3] = tested on: TDP-43 overexpressing Thp1 cells; assay: IFNB1 and TNF induction (qPCR) in TDP-43 overexpressing Thp1 cells; type: cell-based, human; settings: Thp1 cells overexpressing TDP-43 (WT or Q331K)
Description: (§4) Immortalised mouse embryonic fibroblasts (MEFs) lacking MAVS, PKR, cGAS, STING, Bax/Bak, Mcl1 or WT control were maintained in DME/KELSO medium (in-house DMEM containing 40 mM sodium bicarbonate, 1 mM HEPES, 0.0135 mM folic acid, 0.24 mM L-asparagine, 0.55 mM L-arginine, 1×Pen/Strep and 22.2 mM D-glucose) supplemented with 10% FBS (Sigma-Aldrich). Transfection of MEFs was performed using FuGENE HD (Promega). AGK−/− (gift from D. Stojanovski) and WT HEK293T cells were maintained in DMEM supplemented with 10% FBS, 100 U/mL Penicillin and 100 μg/mL Streptomycin. Lipofectamine 2000 (Life Technologies) was used to transfect HEK293T cells according to manufacturers' instructions. Human monocytic THP-1 cells were grown in RPMI-1640 with 10% FBS, 100 U/mL Penicillin and 100 μg/mL Streptomycin. The above cell culture was conducted at 37° C. in a humidified atmosphere with 10% CO2. […] The depletion was analysed using real-time qPCR to measure expression of mitochondrial DNA genes and nuclear genes (see Quantitative real-time PCR below).
as §3
Cytokine expression from qPCR is represented as gene expression relative to Hprt expression as δCt method. Where indicated, relative gene expression in TDP-43 WT or mutant overexpressing cells was further normalised to expression in vector control transfected/overexpressed cells of the same genotype in the same experiment and represented as fold change. Data are typically mean±s.e.m and analysed by t-test between two groups or one- or two-way ANOVA followed by a Sidak or Dunnett multiple comparison test as appropriate. GraphPad Prism 7 was used for all charts and statistical analyses. A P values <0.05 was considered as significant.
Finally, to determine if pharmacological blockade of the cGAS-STING pathway is feasible, recently described inhibitors of cGAS (RU.521, described in Vincent et al., 2017) and STING (H-151 described in Haag et al) were tested. […]

MEFs = assay: Super-resolution confocal microscopy of TDP-43-mediated DNA relocation from mitochondria into the cytoplasm; type: cell-based, mouse; settings: CsA 25 μM
Description: MEF cell lines expressing doxycycline-induced Flagged TDP-43 were seeded onto glass coverslips (18 mm×18 mm, thickness 1½, Zeiss) for indicated times and prepared for imaging as previously described (McArthur et al., 2018). In brief, cells were fixed, blocked and incubated overnight at 4° C. with primary antibodies as follows: anti-Flag (In-house, 9H1), anti-DNA (ProGen, AC-30-10) and anti-TOM20 (Santa Cruz Biotech, sc-11415) in blocking buffer. Following two washes in PBS and an one-hour incubation with secondary antibodies [goat anti-rabbit AF647 (A21245), goat anti-mouse AF488 (A11001 and goat anti-rat AF568, A11077) from Life Technologies], coverslips were mounted onto the microscopy slide using Prolong Diamond Antifade Mountant (ThermoFisher Scientific). Three color imaging was performed on the OMX-SR system (GE Healthcare) using a 60 Å˜1.42 NA oil immersion lens (Olympus).

293T cells = assay: Ifnb1 gene expression induced by TDP-43 (qPCR); type: cell-based; settings: CsA 25 μM
Description: as §4
Total RNA was isolated using the ISOLATE II RNA Mini Kit (Bioline) as per manufacturers' instructions and reverse transcribed using oligo(dT) nucleotides. […] Quantitative real-time PCR was performed using SYBR Green/ROX qPCR Master Mix (Thermo Scientific) on a ViiA 7 Real-Time PCR system (Thermo Scientific).

CCc1ccc(NC(=O)Nc2c[nH]c3ccccc23)cc1 [H-151]
latency to fall in a rotarod test (TDP-43 mutant mice): significantly improved | ALS-associated cytotoxicity (LDH, imaging) [1]: mitigates ALS-associated cytotoxicity | IFNB1 gene induction ([2]; H-151 1 μM): prevent | TNF gene induction ([2]; H-151 1 μM): prevent | IFNB1 induction [3]: prevent | TNF induction [3]: prevent

COC1=C(OC)C(=O)C(CCCCCCCCCC[P+](c2ccccc2)(c2ccccc2)c2ccccc2)=C(C)C1=O [MitoQ]
IFNB1 gene induction ([2]; ROS inhibitors 0.1-1 μM): prevent | TNF gene induction ([2]; ROS inhibitors 0.1-1 μM): prevent

CC1(C)CC(NC(=O)C[P+](c2ccccc2)(c2ccccc2)c2ccccc2)CC(C)(C)N1[O] [MitoTEMPO]
IFNB1 gene induction ([2]; ROS inhibitors 0.1-1 μM): prevent | TNF gene induction ([2]; ROS inhibitors 0.1-1 μM): prevent

Cc1nn(-c2nc3ccc(Cl)c(Cl)c3[nH]2)c(O)c1C1OC(=O)c2ccccc21 (stereo not shown) [RU.521]
IFNB1 gene induction ([2]; RU.521 10 μM): prevent | TNF gene induction ([2]; RU.521 10 μM): prevent | IFNB1 induction [3]: prevent | TNF induction [3]: prevent

cyclosporin A [CsA]
TDP-43-mediated DNA relocation from mitochondria into the cytoplasm (MEFs): prevented mtDNA leakage into the cytoplasm; also recorded: significantly reduced | Ifnb1 gene expression induced by TDP-43 (293T cells): prevents
